Active and inactive are the calls of the source. The rule behind the calls is not given here.

In test [1] the test system is Leishmania donovani. Briefly: In-vitro antileishmanial activity was tested against extracellular promastigotes of Leishmania donovani at dose of 50 ug/mL. Type of test: functional.
Test [2] deals with Leishmania donovani. Briefly: In-vitro antileishmanial activity was tested against intracellular amastigotes of Leishmania donovani at dose 50 ug/mL. Type of test: functional.
In test [3] the test system is Leishmania donovani. Nature of the test: In-vitro antileishmanial activity was tested against extracellular promastigotes of Leishmania donovani at dose of 50 ug/mL; IA is inactive. Type of test: functional, organism-based.
Test [4] concerns Leishmania donovani. Briefly: In-vitro antileishmanial activity was tested against intracellular amastigotes of Leishmania donovani at dose 50 ug/mL; IA is inactive. The class given is functional, organism-based.
Test [5] concerns Leishmania donovani. Briefly: In-vitro antileishmanial activity was tested against intracellular amastigotes of Leishmania donovani at dose 50 ug/mL; Toxic. The class given is functional, organism-based.
Test [6] deals with Leishmania donovani. Nature of the test: In-vitro antileishmanial activity was tested against extracellular promastigotes of Leishmania donovani at dose of 5 ug/mL. The class given is functional.
Test [7] deals with Leishmania donovani. Nature of the test: In-vitro antileishmanial activity was tested against intracellular amastigotes of Leishmania donovani at dose 5 ug/mL. Type of test: functional.

Turning to `CC1(C)C=Cc2c(ccc(C(=O)/C=C/c3ccc(O)cc3)c2O)O1`, the inhibition at 50 µg/mL in the test on Leishmania donovani [1] stood at 84%; with Leishmania donovani [2] it was 74%.

With `COc1ccc(CCC(=O)c2ccc3c(c2O)C=CC(C)(C)O3)cc1OC`, the inhibition result in the test on Leishmania donovani [3] was “inactive”. Further, in the test with Leishmania donovani [2], 50 µg/mL produced 22% inhibition.

Turning to Stibanate, in the test on Leishmania donovani [3], the inhibition entry is “inactive”. In the test with Leishmania donovani [2], this compound registered an inhibition of 85%.

For `COc1ccc(/C=C/C(=O)c2ccc3c(c2O)C=CC(C)(C)O3)cc1`, the inhibition at 50 µg/mL with Leishmania donovani [1] is 85%; with Leishmania donovani [2], 53%.

As to `CC1(C)C=Cc2c(ccc(C(=O)CCc3ccc(O)c(O)c3)c2O)O1`, in the test on Leishmania donovani [4], the inhibition entry was “inactive”. Besides, 50 µg/mL produced 30% inhibition in the test with Leishmania donovani [1].

As for `COc1ccc(/C=C/C(=O)c2ccc(O)cc2O)cc1`, the inhibition at 50 µg/mL in the test with Leishmania donovani [1] was 60%; in the test with Leishmania donovani [2], 15%.

`CC1(C)C=Cc2c(ccc(C(=O)CCc3ccc(O)cc3)c2O)O1`: the inhibition at 50 µg/mL in the test on Leishmania donovani [1] was 89%. In addition, the inhibition entry with Leishmania donovani [5] was “Toxic”.

The compound `COc1ccc(CCC(=O)c2ccc(O)cc2O)cc1OC` yielded an inhibition at 50 µg/mL in the test with Leishmania donovani [1] of 79%. Also, the inhibition entry in the test on Leishmania donovani [5] is “Toxic”.

For the compound `N=C(N)c1ccc(OCCCCCOc2ccc(C(=N)N)cc2)cc1` [PENTAMIDINE], the inhibition at 5 µg/mL in the test on Leishmania donovani [6] came out at 97%; with Leishmania donovani [7], 50%.

Consider `COc1ccc(CCC(=O)c2ccc3c(c2O)C=CC(C)(C)O3)cc1`, for which the inhibition at 50 µg/mL in the test with Leishmania donovani [1] turned out to be 78%; in the test on Leishmania donovani [2], 47%.

As a reminder, the inhibition is how much of the control response was suppressed.

The record behind these values is ChEMBL document CHEMBL1137113, “A convenient and biogenetic type synthesis of few naturally occurring chromeno dihydrochalcones and their in vitro antileishmanial activity” (2004).
